Laboratory results: ChEMBL document CHEMBL4665624, “Synthesis of 5-(4-(1H-phenanthro[9,10-d]imidazol-2-yl)benzylidene)thiazolidine-2,4-dione as promising DNA and serum albumin-binding agents and evaluation of antitumor activity” (Eur J Med Chem, 2019)
The source made the active and inactive calls. The calls are words filed in the database; no cut-off is given here.

Tests used:
NCI-H522 = experiment: Antitumor activity against human NCI-H522 cells assessed as cell growth inhibition at 10 uM incubated for 48 hrs by sulforhodamine B assay; format: functional; details: read-out: GI
Hs-578T = experiment: Cytotoxicity against human HS 578T cells assessed as cell death at 10 uM incubated for 48 hrs by sulforhodamine B assay; format: functional, cell-based
BT-549 = experiment: Antitumor activity against human BT-549 cells assessed as cell growth inhibition at 10 uM incubated for 48 hrs by sulforhodamine B assay; format: functional; details: read-out: GI
SW-620 = experiment: Antitumor activity against human SW620 cells assessed as cell growth inhibition at 10 uM incubated for 48 hrs by sulforhodamine B assay; details: SW-620, 48 h, read-out: GI
Malme-3M = experiment: Antitumor activity against human MALME-3M cells assessed as cell growth inhibition at 10 uM incubated for 48 hrs by sulforhodamine B assay; format: functional; details: read-out: GI
UACC-62 = experiment: Antitumor activity against human UACC-62 cells assessed as cell growth inhibition at 10 uM incubated for 48 hrs by sulforhodamine B assay; format: functional; details: read-out: GI
HCC 2998 = experiment: Cytotoxicity against human HCC2998 cells assessed as cell death at 10 uM incubated for 48 hrs by sulforhodamine B assay; format: functional, cell-based
PC-3 = experiment: Antitumor activity against human PC-3 cells assessed as cell growth inhibition at 10 uM incubated for 48 hrs by sulforhodamine B assay; format: functional; details: read-out: GI
OVCAR-3 = experiment: Antitumor activity against human OVCAR-3 cells assessed as cell growth inhibition at 10 uM incubated for 48 hrs by sulforhodamine B assay; format: functional; details: read-out: GI
MDA-MB-231 = experiment: Antitumor activity against human MDA-MB-231/ATCC cells assessed as cell growth inhibition at 10 uM incubated for 48 hrs by sulforhodamine B assay; format: functional; details: read-out: GI
SK-MEL-28 = experiment: Antitumor activity against human SK-MEL-28 cells assessed as cell growth inhibition at 10 uM incubated for 48 hrs by sulforhodamine B assay; format: functional; details: read-out: GI
SF-268 = experiment: Antitumor activity against human SF268 cells assessed as cell growth inhibition at 10 uM incubated for 48 hrs by sulforhodamine B assay; format: functional; details: read-out: GI
NCI-H23 = experiment: Antitumor activity against human NCI-H23 cells assessed as cell growth inhibition at 10 uM incubated for 48 hrs by sulforhodamine B assay; format: functional; details: read-out: GI
NCI-H226 = experiment: Antitumor activity against human NCI-H226 assessed as cell growth inhibition at 10 uM incubated for 48 hrs by sulforhodamine B assay; format: functional; details: read-out: GI
A498 = experiment: Cytotoxicity against human A498 cells assessed as cell death at 10 uM incubated for 48 hrs by sulforhodamine B assay; format: functional, cell-based
SNB-75 = experiment: Antitumor activity against human SNB-75 cells assessed as cell growth inhibition at 10 uM incubated for 48 hrs by sulforhodamine B assay; format: functional; details: read-out: GI
SK-OV-3 = experiment: Antitumor activity against human SK-OV-3 cells assessed as cell growth inhibition at 10 uM incubated for 48 hrs by sulforhodamine B assay; format: functional; details: read-out: GI
SF-295 = experiment: Antitumor activity against human SF295 cells assessed as cell growth inhibition at 10 uM incubated for 48 hrs by sulforhodamine B assay; format: functional; details: read-out: GI
HCT-15 = experiment: Antitumor activity against human HCT15 cells assessed as cell growth inhibition at 10 uM incubated for 48 hrs by sulforhodamine B assay; format: functional; details: read-out: GI
RPMI-8226 = experiment: Antitumor activity against human RPMI8226 cells assessed as cell growth inhibition at 10 uM incubated for 48 hrs by sulforhodamine B assay; format: functional; details: read-out: GI
HL-60(TB) = experiment: Antitumor activity against human HL-60(TB) cells assessed as cell growth inhibition at 10 uM incubated for 48 hrs by sulforhodamine B assay; format: functional; details: read-out: GI
NCI/ADR-RES = experiment: Antitumor activity against human NCI/ADR-RES cells assessed as cell growth inhibition at 10 uM incubated for 48 hrs by sulforhodamine B assay; format: functional; details: read-out: GI
HOP-92 = experiment: Antitumor activity against human HOP92 cells assessed as cell growth inhibition at 10 uM incubated for 48 hrs by sulforhodamine B assay; format: functional; details: read-out: GI
CCRF-CEM = experiment: Antitumor activity against human CCRF-CEM cells assessed as cell growth inhibition at 10 uM incubated for 48 hrs by sulforhodamine B assay; format: functional; details: read-out: GI
KM12 = experiment: Antitumor activity against human KM12 cells assessed as cell growth inhibition at 10 uM incubated for 48 hrs by sulforhodamine B assay; format: functional; details: read-out: GI
HCT-116 = experiment: Antitumor activity against human HCT116 cells assessed as cell growth inhibition at 10 uM incubated for 48 hrs by sulforhodamine B assay; format: functional; details: read-out: GI
OVCAR-4 = experiment: Antitumor activity against human OVCAR-4 cells assessed as cell growth inhibition at 10 uM incubated for 48 hrs by sulforhodamine B assay; format: functional; details: read-out: GI
ACHN = experiment: Antitumor activity against human ACHN cells assessed as cell growth inhibition at 10 uM incubated for 48 hrs by sulforhodamine B assay; format: functional; details: read-out: GI
IGROV-1 = experiment: Antitumor activity against human IGROV1 cells assessed as cell growth inhibition at 10 uM incubated for 48 hrs by sulforhodamine B assay; format: functional; details: read-out: GI
SN12C = experiment: Antitumor activity against human SN12C cells assessed as cell growth inhibition at 10 uM incubated for 48 hrs by sulforhodamine B assay; format: functional; details: read-out: GI
K562 = experiment: Antitumor activity against human K562 cells assessed as cell growth inhibition at 10 uM incubated for 48 hrs by sulforhodamine B assay; format: functional; details: read-out: GI
LOX IMVI = experiment: Antitumor activity against human LOX IMVI cells assessed as cell growth inhibition at 10 uM incubated for 48 hrs by sulforhodamine B assay; format: functional; details: read-out: GI
MCF7 = experiment: Antitumor activity against human MCF7 cells assessed as cell growth inhibition at 10 uM incubated for 48 hrs by sulforhodamine B assay; format: functional; details: read-out: GI
MOLT-4 = experiment: Antitumor activity against human MOLT4 cells assessed as cell growth inhibition at 10 uM incubated for 48 hrs by sulforhodamine B assay; format: functional; details: read-out: GI
U-251 = experiment: Antitumor activity against human U251 cells assessed as cell growth inhibition at 10 uM incubated for 48 hrs by sulforhodamine B assay; format: functional; details: read-out: GI
SR = experiment: Antitumor activity against human SR cells assessed as cell growth inhibition at 10 uM incubated for 48 hrs by sulforhodamine B assay; format: functional; details: read-out: GI
UO-31 = experiment: Antitumor activity against human UO-31 cells assessed as cell growth inhibition at 10 uM incubated for 48 hrs by sulforhodamine B assay; format: functional; details: read-out: GI

O=c1[nH]cc(F)c(=O)[nH]1 [FLUOROURACIL]
inhibition of growth at 10 µM (NCI-H522): 58%
Activity (Hs-578T): Active
inhibition of growth at 10 µM (BT-549): 37.8%
inhibition of growth at 10 µM (SW-620): < 10%
inhibition of growth at 10 µM (Malme-3M): 58.2%
inhibition of growth at 10 µM (UACC-62): 39.7%
Activity (HCC 2998): Active
inhibition of growth at 10 µM (PC-3): 58.2%
inhibition of growth at 10 µM (OVCAR-3): 47.4%
inhibition of growth at 10 µM (MDA-MB-231): 78.1%
inhibition of growth at 10 µM (SK-MEL-28): 19.5%
inhibition of growth at 10 µM (SF-268): 59%
inhibition of growth at 10 µM (NCI-H23): 39%
inhibition of growth at 10 µM (NCI-H226): 69.5%
Activity (A498): Active
inhibition of growth at 10 µM (SNB-75): 65.9%
inhibition of growth at 10 µM (SK-OV-3): 77.5%
inhibition of growth at 10 µM (SF-295): 69%
inhibition of growth at 10 µM (HCT-15): 26.5%
inhibition of growth at 10 µM (RPMI-8226): 41.4%
inhibition of growth at 10 µM (HL-60(TB)): 47.9%
inhibition of growth at 10 µM (NCI/ADR-RES): 47.6%
inhibition of growth at 10 µM (HOP-92): 50.6%
inhibition of growth at 10 µM (CCRF-CEM): 57.1%
inhibition of growth at 10 µM (KM12): 40.7%
inhibition of growth at 10 µM (HCT-116): 17.8%
inhibition of growth at 10 µM (OVCAR-4): 59.4%
inhibition of growth at 10 µM (ACHN): 39.3%
inhibition of growth at 10 µM (IGROV-1): 51.2%
inhibition of growth at 10 µM (SN12C): 54%
inhibition of growth at 10 µM (K562): 42.3%
inhibition of growth at 10 µM (LOX IMVI): 30.4%
inhibition of growth at 10 µM (MCF7): 11.5%
inhibition of growth at 10 µM (MOLT-4): 43.1%
inhibition of growth at 10 µM (U-251): 50.3%
inhibition of growth at 10 µM (SR): 24.8%
inhibition of growth at 10 µM (UO-31): 41.3%
